Where two headings read alike, the source gives them in different places.
Legend:
[1] = test system: 2-phenyl-1,4-benzoquinone-induced writhing; assay: 2-phenyl-1,4-benzoquinone-induced writhing test (analgesia); assay type: in vivo, mice; details: for ED50: Mus musculus, po
Description: Compounds of the present invention are also useful as analgesic agents due to their ability to alleviate pain in mammals.

rat paw edema = assay: carrageenin induced rat paw edema anti-inflammatory assay; assay type: in vivo; details: for ED50: Rattus norvegicus

Question: `CC(C)Cc1ccc(C(C)C(=O)O)cc1` (stereo not shown) [ibuprofen, reference compound] was tested. Which ED50 ([1]; orally, in a similar test, read-out: analgesic ED50) did it give?
Answer: Its ED50 is 10.4 mg/kg.

Question: With `COc1ccc2c(c1)c(CC(=O)O)c(C)n2C(=O)c1ccc(Cl)cc1` [indomethacin, reference compound] as the compound, how does the ED50 (rat paw edema; po, read-out: anti-inflammatory ED50) read?
Answer: Its ED50 is 6 mg/kg.

Question: How did the “ED50 (mg/kg; 120 min.)” value (rat paw edema) turn out when `O=C1c2cc(CCO)ccc2OCc2ccsc21` [(4,10-Dihydro-10-oxothieno[3,2-c][1]benzoxepin-8-yl) ethanol] was run?
Answer: Its value is 34.2 mg/kg.

Question: What about the “ED50 (mg/kg; p.o.)” value ([1]; p.o., Phenylquinone Writhing) of the same compound?
Answer: Its value is 19.7 mg/kg.

Question: For `CC(CO)c1ccc2c(c1)C(=O)c1sccc1CO2` (racemic) [(±)-2-(4,10-Dihydro-10-oxothieno[3,2-c][1]benzoxepin-8-yl)propanol], which ED50 (rat paw edema; 2 h, read-out: ED50 (mg/kg; 120 min.)) is on record?
Answer: The ED50 was 4.3 mg/kg.

Question: And the ED50 ([1]; Phenylquinone Writhing, read-out: ED50 (mg/kg; p.o.))?
Answer: The ED50 was 4.3 mg/kg.

Question: For `CC(=O)OCCc1ccc2c(c1)C(=O)c1sccc1CO2` [2-(4,10-Dihydro-10-oxothieno[3,2-c][1]benzoxepin-8-yl) ethyl acetate], which “ED50 (mg/kg; 120 min.)” value (rat paw edema) is on record?
Answer: The value was 11.4 mg/kg.
